Consider three molecules from patent publication US12653785B2, “Compositions and methods for administering a YAP1/WWRT1 inhibiting composition and a GLS1 inhibiting composition” (UNIVERSITY OF PITTSBURGH—OF THE COMMONWEALTH SYSTEM OF …, priority 2020, dated 2026).

For series [1], the system named is monocrotaline rat model of PH. The conditions noted are these: drugs delivered systemically; cited from earlier work.
A short description of series [2]: Encapsulation efficiency, loading and release kinetics of drugs from PLGA microparticles. Type of series: physicochemical. The conditions noted are these: different formulations (single drug or combination); 0.2% tween 80, 37° C. The protocol: The morphology of the microparticles was characterized using scanning electron microscopy (SEM—JEOL JSM6510) and the average size of the blank microparticles was determined using dynamic light scattering (Malvern, Worcestershire, UK). The release kinetics of the drugs from PLGA microparticles was determined by incubating 1 mg of microparticles with or without drugs in 1 mL of 0.2% tween 80 (Fisher Scientific, Pittsburgh, PA) in centrifuge tubes on end-over-end rotator at 37° C. Every day for 10 days, the tubes were centrifuged at 2000 g for 5 min, 0.8 mL of the supernatant was retrieved and frozen at −20° C., and 0.8 mL of fresh 0.2% tween 80 was replaced in the tubes. These tubes were then returned to the incubator.
In order to assess the concentration of verteporfin, UV-vis spectroscopy plate reader (SpectraMax, Molecular Devices, Sunnyvale, CA) was utilized. […] Using this wavelength, a standard curve was plotted, and the concentration of the released verteporfin from microparticles was determined. The cumulative amount of verteporfin released from the microparticles was quantified and utilized to determine the percentage encapsulation efficiency and percentage loading.
In order to assess the concentration of CB-839, a high-performance liquid chromatography (HPLC Ultimate 3000, Fisher Scientific, Pittsburgh, PA) protocol was developed. […]

On to `CN(C)c1ccc(C2Nc3ccc4ccccc4c3C3=C2C(=O)CC(C)(C)C3)cc1Br` (centres unmarked) [C968, 5-(3-Bromo-4-(dimethylamino)phenyl)-2,2-dimethyl-2,3,5,6-tetrahydrobenzo[a]phenanthridin-4(1H)-one], for which, in series [1], the “reversal of PH (hemodynamic and histopathologic manifestations)” value is given as “substantial reversal”.
For `O=C(Cc1cccc(OC(F)(F)F)c1)Nc1ccc(CCCCc2nnc(NC(=O)Cc3ccccn3)s2)nn1` [CB-839], in series [1], the “reversal of PH (hemodynamic and histopathologic manifestations)” value was “substantial reversal”. Further, the “duration of sustained release from PLGA microparticles” value in series [2] was 10 days.
For `C=Cc1c(C)c2cc3nc(cc4[nH]c(cc5nc(cc1[nH]2)C(C)=C5CCC(=O)O)c(CCC(=O)OC)c4C)[C@@]1(C)C3=CC=C(C(=O)OC)[C@H]1C(=O)OC` [verteporfin, 3-[(23S,24R)-14-ethenyl-5-(3-methoxy-3-oxopropyl)-22,23-bis(methoxycarbonyl)-4,10,15,24-tetramethyl-25,26,27,28-tetraazahexacyclo[16.6.1.1^3,6.1^8,11.1^13,16.0^19,24]octacosa-1,3,5,7,9,11(27),12,14,16,18(25),19,21-dodecaen-9-yl]propanoic acid], the “reversal of PH (hemodynamic and histopathologic manifestations)” value in series [1] is on record as “substantial reversal”. The “duration of sustained release from PLGA microparticles” value in series [2] is given as 6 days.
